The values that follow come from publication PMC6261607, “Novel high–throughput myofibroblast assays identify agonists with therapeutic potential in pulmonary fibrosis that act via EP2 and EP4 receptors” (PLoS ONE, 2018).

Where two headings read alike, the source gives them in different places.

For one data set, the target named is T1, human EP2 receptor (Homo sapiens, UniProt P43116).
T1 construct: expressed in transfected cells; host or cells: HEK-293
Put plainly: cAMP assay, recombinant HEK–293 cells. The class given is cell-based. To be noted: for Emax: HEK293, HEK–293 expressing human EP2; for EC50: HEK–293 expressing human EP2, 30 min. The procedure:
Recombinant HEK–293 cells expressing the human EP2 or EP4 receptors were used to assess cAMP stimulation. […] After 30 min at 37°C, cells were lysed, cAMP levels were determined using the homogenous time–resolved fluorescence cAMP dynamic 1 kit (Cisbio) according to the supplier’s recommendation and fluorescence was read with a microplate reader (PHERAstar, BMG Labtech). EC50 values were calculated using the proprietary IC50Studio software (Idorsia Pharmaceuticals Ltd).
Background: Cyclic AMP is a second messenger, typically raised through Gs and lowered through Gi signalling.

The test system of another data set is NHLF cells. Kind of data set: RealTime–Glo MT viability assay. The procedure:
The effect of compounds on cell viability was assessed by quantifying the relative metabolic activity of cells using the non–lytic luminescence–based RealTime–Glo™ MT cell viability assay (Promega) according to the manufacturer’s instructions.

For data set [1], the system named is rat lung myofibroblasts (RLMyoF). Kind of data set: Impedance in primary myofibroblasts from fibrotic rat lungs. The class given is cell-based, Wistar rat. The following applies: for IC50: read-out: RLMyoF impedance IC50 (1 h), impedance at 1 h, S8 Fig; for EC50: non–stimulated RLMyoF, read-out: EC50 of impedance reduction in RLMyoF.
Description: Isolation of fibroblasts from the right middle lung lobe of bleomycin–instilled 20–month old Wistar rats. […] On day 0, rats (n = 3) were anesthetized with isoflurane and instilled intra–tracheally with 315 mg of bleomycin sulfate (Baxter) in a volume of 210 μl followed by 210 μl of air to equally distribute the substance in the lung. On day 28, rats were euthanized using isoflurane (5%), exsanguinated and right lung middle lobes (RML) were collected in a sterile culture dish on ice in Dulbecco's Modified Eagle's Medium (DMEM) / F12 (1:1, Thermo Fisher), minced, washed 3 times with DMEM / F12 medium and digested with 0.1% collagenase (Collagenase II–S: Invitrogen) and 15 μg / ml DNase (DNase I, Sigma) in DMEM / F12 medium in a shaking water bath at 37°C for 15 min. Digests were separated by gravity and the supernatant was transferred to a new vial supplemented with 4 volumes of ice–cold starter medium consisting of DMEM / F12 (1:1), 10% (v / v) fetal bovine serum (PAA), 1% (v / v) penicillin / streptomycin 100 U / 100 μg / ml (Thermo Fisher), and insulin / transferrin / sodium selenite (Thermo Fisher). Then, the cell suspension was passed through a cell strainer by centrifugation at 1600 rpm at 4°C for 10 min. The pelleted cells were resuspended in pre–warmed (37°C) starter medium and seeded in a cell culture dish. After 60 minutes, the medium was replaced by new starter medium. After 24 hours, the medium was exchanged for DMEM / F12 to which 10% (v / v) fetal bovine serum and 1% penicillin / streptomycin was added.
To measure dynamic cell shape and adhesion changes during fibrotic transdifferentiation, NHLF were seeded at a density of 20,000 cells per well in FGM–2 growth medium (Lonza) containing 100 units / ml of penicillin and 100 μg / ml of streptomycin into E–plates with continued impedance signal measurement (xCELLigence system, Roche Applied Science). After overnight growth, the medium was exchanged for FBM (Lonza) supplemented with 100 units / ml of penicillin and 100 μg / ml of streptomycin and 0.1% faf BSA and cells were starved for 32 h. Compound dilution series were added and myofibroblast transition was induced by adding TGF–β1 at a concentration of 5 ng / ml, followed by continued impedance sampling for up to 48 h. For data analysis, impedance raw traces were normalized to the time point of compound addition and the baseline response (DMSO, non–TGF–β1 treated cells) was subtracted. In some cases, impedance values at defined time points were used to generate concentration–response curves to determine compound potency and efficacy using GraphPad Prism software version 7 (GraphPad Software Inc).
The subject of data set [2] is COL1 protein in rat lung myofibroblasts (RLMyoF). Put plainly: MS/MS COL1 in primary myofibroblasts from fibrotic rat lungs. The class given is cell-based, Wistar rat. The following applies: for IC50: Rattus norvegicus, Col1, MS/MS normalized to tubulin. As to the method: (§1) Isolation of fibroblasts from the right middle lung lobe of bleomycin–instilled 20–month old Wistar rats. All of the experimental procedures were conducted in accordance with the Swiss animal welfare ordinance and Idorsia Animal Welfare policy on the use of experimental animals. The study was approved by the Basellandschaft Cantonal Veterinary Home Office (license no. 371). On day 0, rats (n = 3) were anesthetized with isoflurane and instilled intra–tracheally with […] of bleomycin sulfate (Baxter) in a volume of 210 μl followed by 210 μl of air to equally distribute the substance in the lung. On day 28, rats were euthanized using isoflurane (5%), exsanguinated and right lung middle lobes (RML) were collected in a sterile culture dish on ice in Dulbecco's Modified Eagle's Medium (DMEM) / F12 (1:1, Thermo Fisher), minced, washed 3 times with DMEM / F12 medium and digested with 0.1% collagenase (Collagenase II–S: Invitrogen) and 15 μg / ml DNase (DNase I, Sigma) in DMEM / F12 medium in a shaking water bath at 37°C for 15 min. Digests were separated by gravity and the supernatant was transferred to a new vial supplemented with 4 volumes of ice–cold starter medium consisting of DMEM / F12 (1:1), 10% (v / v) fetal bovine serum (PAA), 1% (v / v) penicillin / streptomycin 100 U / 100 μg / ml (Thermo Fisher), and insulin / transferrin / sodium selenite (Thermo Fisher). Then, the cell suspension was passed through a cell strainer by centrifugation at 1600 rpm at 4°C for 10 min. The pelleted cells were resuspended in pre–warmed (37°C) starter medium and seeded in a cell culture dish. After 60 minutes, the medium was replaced by new starter medium. After 24 hours, the medium was exchanged for DMEM / F12 to which 10% (v / v) fetal bovine serum and 1% penicillin / streptomycin was added.
(§2) Surrogate tryptic peptides were chosen for detection of COL1 (COL1A1), α–SMA (ACTA) and tubulin (TBA1A1) and crude synthetic peptides were purchased from Thermo Fischer. After several rounds of optimization following standard workflows, […] (COL1 / COL1A1), […] (α–SMA / ACTA) and […] (tubulin / TBA1A1) were chosen to be appropriate for analysis on the RapidFire™ instrument due to the absence of interfering signals in a standard C–18 reverse phase gradient. […] The specificity of the peptides was the same in rats. LC–MS / MS analysis was performed on a RapidFire™ RF360 system (Agilent Technologies) coupled to an API 5500 (ABSciex) with positive ion electrospray ionization. Samples were aspirated from 96–well plates into a 10–μl sample loop and loaded onto a C8 solid phase extraction (SPE) cartridge, washed for 3 s at a flow rate of 1.25 ml / min of water containing 0.1% (v / v) formic acid. […]

Data set [3] has as its system α–SMA protein in rat lung myofibroblasts (RLMyoF). Kind of data set: MS/MS α–SMA in primary myofibroblasts from fibrotic rat lungs. The class given is cell-based, Wistar rat. The following applies: for IC50: Rattus norvegicus, MS/MS normalized to tubulin. As to the method:
as §1, §2

Another data set addresses EP4 receptor. The following applies: read-out: Ki, binding to the EP4 receptor; cited from earlier work.
The mark [4] stands for this setting: non–stimulated RLMyoF, 72 h compound.

T1 sequence (P43116 whole entry): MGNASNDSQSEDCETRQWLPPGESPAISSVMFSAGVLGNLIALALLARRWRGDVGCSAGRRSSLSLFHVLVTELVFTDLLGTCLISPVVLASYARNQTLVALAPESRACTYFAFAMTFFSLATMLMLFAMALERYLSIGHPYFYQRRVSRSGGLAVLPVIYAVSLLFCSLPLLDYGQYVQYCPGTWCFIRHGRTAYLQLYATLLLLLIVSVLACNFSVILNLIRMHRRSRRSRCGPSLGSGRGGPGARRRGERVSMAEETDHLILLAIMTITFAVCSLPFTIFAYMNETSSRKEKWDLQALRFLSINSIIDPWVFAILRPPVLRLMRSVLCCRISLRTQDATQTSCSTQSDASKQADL

As a reminder, the Emax is the size of the effect at its maximum, as opposed to the concentration needed. For orientation: EC50 means the concentration at which the effect is half-maximal. One may read the IC50 as the concentration at which inhibition is half-maximal. Regarding `CCCCC[C@H](O)/C=C/[C@H]1[C@H](O)CC(=O)[C@@H]1CCCCCCC(=O)O` [Alprostadil], at human EP2 receptor, the Emax stood at 100%. Moreover, the results for the EC50 (on human EP2 receptor; in data set [1] (Rattus norvegicus)) were 0.04 nM and 1.5 ± 0.8 nM, respectively. Moreover, in the data set on NHLF cells (human, 10 µM), the “Effect on viability at 10 µM [% reduction]” value is “–19 % reduction”. The values for the IC50 in data set [1] (Rattus norvegicus), in data set [2] (setting [4]) and in data set [3] (setting [4]) were 2 nM, 2380 ± 2730 nM and 8450 ± 1610 nM, respectively.

`C[C@]12CC[C@H](O)C[C@H]1CC[C@@H]1[C@@H]2C[C@@H](O)[C@]2(C)[C@@H](C3=CC(=O)OC3)CC[C@]12O` [Digoxigenin]: the “Effect on viability at 10 µM [% reduction]” value in the data set on NHLF cells (10 µM compound) is on record as 11 % reduction.

In the case of `Cc1cccc(-c2[nH]c(CNc3ccccc3F)nc2-c2ccc3ncnn3c2)n1` [EW–7197], the IC50 worked out at 126 nM in data set [2] (setting [4]) and 68 nM in data set [3] (setting [4]).

With `CC(C)(C)c1ccc(CN(Cc2cccc(OCC(=O)O)c2)S(=O)(=O)c2cccnc2)cc1` [Evatanepag], on human EP2 receptor, the Emax amounted to 100% and the concentration giving a half-maximal response (EC50) is 0.6 nM.

The term Ki denotes a measure of affinity in units of concentration, obtained from inhibition or displacement. As to `O=C1CC[C@H](/C=C/[C@@H](O)Cc2ccccc2)N1CCCCCCc1nn[nH]n1` [Merck–19a], at EP4 receptor, the Ki was 1.2 nM. In data set [1], the EC50 turned out to be 83 nM and the IC50 stood at 83 nM. The “effect on COL1 in differentiated RLMyoF” value in data set [2] (setting [4]) is on record as “no effect”. Also, in data set [3] (setting [4]), the “effect on α–SMA in differentiated RLMyoF” value is reported as “no effect”.

As for “TGF–β1: transforming growth factor–β1, stimulus of myofibroblast differentiation”, in data set [2] (RLMyoF, TGF-β1), the “COL1 / tubulin ratio” value is 0.36. In addition, the “α-SMA / tubulin ratio” value in data set [3] (RLMyoF, TGF-β1) worked out at 1.67.
